What was measured:
uterine leiomyomata [1] = test: Clinical study of 2.5 mg mifepristone for the treatment of uterine leiomyomata (Example 1); type: in vivo, human; conditions: 2.5 mg daily, three months
Procedure: The study was conducted at a single site in Rochester, N.Y. Subjects: Inclusion criteria for the study included that subjects be (i) female; (ii) 18 years of age to premenopausal; and (iii) willing and able to give informed consent and comply with study requirements; and have (i) at least moderate symptoms of menorrhagia and/or pelvic pain/pressure; (ii) a total uterine volume greater than or equal to 160 cubic centimeters (cc) by ultrasound measurement; (iii) at least one leiomyomata ≧2.5 cm in size; (iv) a score of equal to or greater than 39 on the Uterine Fibroid Symptom and Quality of Life Scale; (v) declined standard treatment options for symptomatic leiomyomata; and (vi) agreed to use a barrier method (condoms, diaphragms) or other effective non-hormonal method of contraception (abstinence, sterilization) throughout participation in the study. Exclusion criteria for the study included: (i) current or planned pregnancy during the study period; (ii) menopausal, as indicated by follicle-stimulating hormone (FSH) level of the reference laboratory; (iii) currently breast-feeding; (iv) untreated abnormal pap smear; (v) presence of conditions other than leiomyomata contributing to pain and/or bleeding; (vi) hemoglobin […]; (vii) presence of […] masses or tenderness requiring further evaluation or surgery; (viii) grade III or IV hydronephrosis by ultrasound; (ix) severe, active mental disorder; […] (xi) current or recent (within the last three months) use of oral systemic corticosteroids, hormones (including estrogens, progestins, oral contraceptives), danazol, anticoagulants, or herbal or botanical supplements with possible hormonal effects; (xii) use within the past six months of GnRH analogs or Depo-Provera®; and (xiii) current or planned use during the study of any of the following medications or products: ketoconazole, itraconazole, erythromycin, grapefruit juice, rifampin, St. John's Wort, phenytoin, phenobarbital or carbamazepine Primary recruitment of subjects occurred through direct advertising and physician referrals. Women who were successfully prescreened were contacted by telephone and invited to an screening session/orientation. Prospective subjects were provided with a verbal and written description of the study and requirements for participation. Written informed consent was obtained from each participant at the screening session/orientation, and medical record releases were obtained and reviewed by the project gynecologist. Participants who gave consent were assigned a study ID number and asked to proceed further with the screening session. […] During the screening session the following information was collected: Physical Examination: Height, weight, blood pressure, pulse readings, examination of the breasts, heart, lungs, abdomen, and complete gynecologic examination including bi-manual at screening session/orientation (baseline). Height, weight, blood pressure, pulse readings and examination of the breasts. Blood samples: Negative pregnancy test and normal liver function testing (ALT, AST), hemoglobin and FSH levels. Ultrasonography: All subjects underwent abdominal and vaginal ultrasonography and uterine artery and leiomyomata blood flow assessment. Specifically, uterine leiomyomata size was assessed by transabdominal and/or transvaginal sonography by a single, certified and experienced ultrasonographer. Combined abdominal and vaginal ultrasonography was the standard for assessing leiomyomata size. […]

[2] = system: breakthrough uterine bleeding in new starters of DMPA; test: Mifepristone for prevention of breakthrough bleeding in new starters of DMPA (Example 9); type: in vivo, human; conditions: 50 mg capsule every 14 days with DMPA
uterine leiomyomata [3] = test: Randomized, double-blinded, placebo-controlled study of mifepristone 5 mg daily for symptomatic uterine leiomyomata (Example 11); type: in vivo, human
From the text: The Study and Results are described in […] et al., Obstetrics & Gynecology, 108(6) (2006), hereby incorporated by reference in its entirety. […] Women were excluded if they were pregnant or intended to become pregnant during the next 6 months or had major medical morbidity or severe anemia, active mental illness, elevated liver enzymes, or substance abuse. Participants agreed to use barrier contraception and not to use hormonal or surgical treatments for leiomyomata during the course of the trial. Analgesic use was permitted. […] Secondary measures included global health status (Medical Outcomes 36-item Short Form [SF-36] survey) and global pain (McGill Pain Questionnaire). Each questionnaire was administered at baseline, 1 month, 3 months, and 6 months, except the McGill Pain Questionnaire, which was assessed monthly. Bleeding was assessed by using daily menstrual logs and pictorial bleeding charts. A monthly blood loss index was calculated from menstrual history by assigning values […] to each day of spotting, indicating light, moderate, and heavy flow, respectively, and then summing the results. Monthly assessments of the presence and intensity of likely leiomyoma symptoms (including pelvic pain, pelvic pressure, bladder pressure, urinary frequency, low back pain, rectal pain, and pain with intercourse) and drug adverse effects (including hot flushes, headache, nausea, vomiting, mood swings, diarrhea, decreased libido, weakness, fatigue, and nervousness) were performed with a standardized instrument consisting of 5-point Likert scale items. […] The uterus was measured in three planes and a total volume calculated. The five largest leiomyomata were identified, a volume calculated for each of the leiomyomata, and the results summed. Baseline uterine volume was subtracted from each subsequently measured uterine volume, and volume changes were analyzed. The final analysis was powered to detect a 25-point difference in mean Uterine Fibroid Symptom Quality of Life scores. Differences in Uterine Fibroid Symptom Quality of Life scores, ultrasound measures, bleeding, pain, and other longitudinal measures were assessed by using individual growth curve models. […] Approximate t tests were used to test hypotheses of between-group and within-group differences in outcomes.

uterine leiomyomata [4] = conditions: cited from earlier work
[5] = system: endometrial receptors and breakthrough bleeding; conditions: women on Norplant, mifepristone orally; Cheng et al.; cited from earlier work
[6] = target: glucocorticosteroid receptor (GR) (Homo sapiens, UniProt P04150); conditions: cited from earlier work
Chain of glucocorticosteroid receptor (GR) (P04150 whole entry): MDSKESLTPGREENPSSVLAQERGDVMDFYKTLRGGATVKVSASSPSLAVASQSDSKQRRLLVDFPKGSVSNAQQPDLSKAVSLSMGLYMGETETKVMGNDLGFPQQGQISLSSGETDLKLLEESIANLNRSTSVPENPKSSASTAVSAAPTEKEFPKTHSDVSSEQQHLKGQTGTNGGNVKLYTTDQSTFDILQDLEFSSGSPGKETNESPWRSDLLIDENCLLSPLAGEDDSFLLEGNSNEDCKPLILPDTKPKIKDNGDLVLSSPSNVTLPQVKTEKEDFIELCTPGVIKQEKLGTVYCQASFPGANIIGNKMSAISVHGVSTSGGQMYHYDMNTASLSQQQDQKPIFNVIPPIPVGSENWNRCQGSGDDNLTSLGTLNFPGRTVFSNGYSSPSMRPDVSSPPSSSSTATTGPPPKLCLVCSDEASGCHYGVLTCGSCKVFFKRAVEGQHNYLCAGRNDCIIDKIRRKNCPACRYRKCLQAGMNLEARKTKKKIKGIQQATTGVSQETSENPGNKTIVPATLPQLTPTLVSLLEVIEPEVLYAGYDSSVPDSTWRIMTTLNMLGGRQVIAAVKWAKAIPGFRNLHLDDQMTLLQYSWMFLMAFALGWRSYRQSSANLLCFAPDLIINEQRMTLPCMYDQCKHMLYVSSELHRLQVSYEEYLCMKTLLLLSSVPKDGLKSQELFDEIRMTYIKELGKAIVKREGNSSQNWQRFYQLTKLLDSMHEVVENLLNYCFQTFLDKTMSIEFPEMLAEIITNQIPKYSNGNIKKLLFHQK

For `CC#C[C@]1(O)CC[C@H]2[C@@H]3CCC4=CC(=O)CCC4=C3[C@@H](c3ccc(N(C)C)cc3)C[C@@]21C` [mifepristone, 17-hydroxy-11-(4-dimethylaminophenyl)-17-(prop-1-ynyl)estra-4,9-dien-3-one], the amenorrhea (uterine leiomyomata [1]) was “all subjects became amenorrheic”, the “mean decrease in leiomyomata volume” value (uterine leiomyomata [1]) was 26% and the “mean decrease in uterine volume” value (uterine leiomyomata [1]) was 19%. The “mean leiomyomata volume (aggregated) after treatment” value (uterine leiomyomata [1]; baseline 187) was 139, the “mean uterine volume after treatment” value (uterine leiomyomata [1]; baseline 795 cc) was 653 cc and the “median percentage days of bleeding” value ([2]; 1232 women-days, placebo 30%, p<0.05, results to date) was 11%. The adverse events ([2]; to date) was “no adverse events have occurred”, the “period in which most of the improvement in symptoms and quality of life occurred” value (uterine leiomyomata [3]; 5 mg daily for 26 weeks, first weeks of treatment) was 8-12 weeks and the SF-36 subscales (uterine leiomyomata [3]; 5 mg daily, 6 months) was “improvements in energy and fatigue, health status change, and pain”. The “endometrial hyperplasia or other significant endometrial pathology” value (uterine leiomyomata [3]; 5 mg daily, 6 months) was “No endometrial hyperplasia or other significant endometrial pathology was observed”, the liver function (uterine leiomyomata [3]; 5 mg daily, 6 months) was “None of the participants showed abnormal liver function” and the “reduction in leiomyoma size vs placebo” value (uterine leiomyomata [3]; 5 mg daily, 6 months) was “statistically significant differences in reduction in leiomyoma size”. For the same compound, the “leiomyoma-specific quality of life and aspects (concern, activities, energy and mood, control, self-consciousness, sexual functioning) vs placebo” value (uterine leiomyomata [3]; 5 mg daily, 6 months, P<0.001 overall) was “Significant improvements”, the “average decrease of uterine volume” value (uterine leiomyomata [3]; 5 mg daily, 6 months, P=0.02, placebo increased 73 mL) was 200 mL and the “pain, McGill Pain Questionnaire” value (uterine leiomyomata [3]; 5 mg daily, 6 months, difference to placebo not statistically significant) was “decreases in pain”. For the same compound, the “mean hemoglobin level after treatment” value (uterine leiomyomata [3]; 5 mg daily, 6 months, from 12.0 g/dL, P<0.001) was 13.5 g/dL, the “potential medication adverse effects” value (uterine leiomyomata [3]; 5 mg daily, 6 months, incidence and severity not statistically different from placebo) was “uncommon” and the tolerability (uterine leiomyomata [3]; 5 mg daily, 6 months, low dropout rate) was “well tolerated”. For the same compound, the bleeding (uterine leiomyomata [3]; 5 mg daily, 6 months, not in placebo group) was “decreased markedly”, the “mean Uterine Fibroid Symptoms Quality of Life increase” value (uterine leiomyomata [3]; 5 mg daily, 6 months, of a possible 100 points, range 0-86, placebo 16.7) was 50.1 points and the “mean Uterine Fibroid Symptoms Quality of Life increase, percent” value (uterine leiomyomata [3]; 5 mg daily, 6 months, placebo 41%) was 135%. For the same compound, the “average decrease of uterine volume adjusted for individual baseline volume” value (uterine leiomyomata [3]; 5 mg daily, 6 months, secondary regression, placebo increased 10%) was 47%, the “cystic glandular dilatation of the endometria” value (uterine leiomyomata [3]; 5 mg daily, 6 months, treated women vs placebo) was “Higher rates” and the “women anemic (hemoglobin below 12.0 g/dL) after six months” value (uterine leiomyomata [3]; 5 mg daily, 2 of 22, baseline 11 of 22 (50%), control 60%) was 9%. For the same compound, the “women amenorrheic by the sixth month” value (uterine leiomyomata [3]; 5 mg daily, 9 of 22 women, none in placebo group) was 41%, the “symptom severity score at 6 months” value (uterine leiomyomata [3]; 5 mg daily, from 67 at baseline, placebo 67 to 50) was 21 and the “monthly reports of symptoms (pelvic pain, pelvic pressure, bladder pressure, urinary frequency, low back pain, rectal pain, pain with intercourse)” value (uterine leiomyomata [3]; 5 mg daily, group difference significant only for pain with intercourse (P<0.05)) was “all showed improvements”. For the same compound, the effectiveness (uterine leiomyomata [4]; 5 mg administered for 6 months, Eisinger et al.) was “confirmed the effectiveness”, the uterine leiomyomata size (uterine leiomyomata [4]; Eisinger et al. 2003) was “reduce uterine leiomyomata size” and the “uterine shrinkage and rates of amenorrhea compared with GnRH agonists” value (uterine leiomyomata [4]; Kettel et al., Murphy et al.) was “equivalent amount of uterine shrinkage and rates of amenorrhea to GnRH agonists”. For the same compound, the “side effects of the lower described doses” value (uterine leiomyomata [4]; doses such as 10 mg) was “increased hot flashes”, the “side effects of the highest described doses” value (uterine leiomyomata [4]; doses such as 50 mg) was “can increase the prevalence and severity of hot flashes, can cause an elevation in hepatic enzymes” and the breakthrough bleeding [5] was “decreased breakthrough bleeding”. For the same compound, the “endometrial estrogen receptor concentration” value [5] was “increased endometrial estrogen receptor concentration”, the “endometrial progesterone receptor concentration” value [5] was “decreased endometrial progesterone receptor concentration” and the “affinity for the glucocorticosteroid receptor (GR)” value [6] was “high affinity”.

— patent US8173626B2, “Methods, dosing regimens and medications using anti-progestational agents for the treatment of disorders” (Danco Laboratories LLC, priority 2006, dated 2012)
